Legend:
human c-myc oncogene = conditions: read-out: IC50 to arrest PCR of the c-myc gene; cited from earlier work
HIV-1 LTR = conditions: read-out: IC50 to arrest PCR of the HIV gene; cited from earlier work
calf thymus DNA (CT-DNA) = assay: DNA thermal denaturation (melting) studies; assay type: binding; conditions: CT-DNA 100 μM DNAp, compound 20 μM, 37 °C; for Induced ΔTm after incubation 0 hours: pH 7.00, 0 hours; for Induced ΔTm after incubation 4 hours: pH 7.00, 4 hours; for Induced ΔTm after incubation 18 hours: pH 7.00, 18 hours; for Induced ΔTm after incubation 72 hours: pH 7.00, 72 hours
Description: The PBD agents were subjected to DNA thermal melting (denaturation) studies (Gregson, S. J., et al., Journal of Medicinal Chemistry, 44(5), 737-748 (2001); Jones, G. B., et al., Anti-Cancer Drug Design, 5(3), 249-264 (1990); McConnaughie, A. W. and; Jenkins, T. C. Journal of Medicinal Chemistry, 38(18), 3488-3501 (1995)) using calf thymus DNA (CT-DNA, type-1, highly polymerized sodium salt; 42% G+C [Sigma]) at a fixed 100 μM (DNAp=50 μM bp) concentration, determined using an extinction coefficient of 6600 (M phosphate)^−1 cm^−1 at 260 nm (Manzini, G., et al., Nucleic Acids Research, 11(24), 8861-8876 (1983)). Solutions were prepared in pH 7.00±0.01 aqueous buffer containing 10 mM NaH2PO4/Na2HPO4 and 1 mM EDTA. Working solutions containing CT-DNA and the test compound (20 μM) were incubated at 37.0±0.1° C. for 0 to 18 hours using an external water bath. Samples were monitored at 260 nm using a Varian-Cary 400 Bio spectrophotometer fitted with a Peltier heating accessory. Heating was applied at a rate of 1° C./min in the 45 to 98° C. temperature range, with optical and temperature data sampling at 200 ms intervals. A separate experiment was carried out using buffer alone, and this baseline was subtracted from each DNA melting curve before data treatment. Optical data were imported into the Origin 5 program (MicroCal Inc., Northampton, Mass.) for analysis. DNA helix→coil transition temperatures (Tm) were determined at the midpoint of the normalized melting profiles using a published analytical procedure (Jones, G. B., et al., Anti-Cancer Drug Design, 5(3), 249-264 (1990)). Results are given in table 1 as the mean±standard deviation from at least three determinations. Ligand-induced alterations in DNA melting behaviour (ΔTm) are given by ΔTm=Tm(DNA+ligand)−Tm(DNA), where the Tm value determined for free CT-DNA is 67.82±0.06° C. (averaged from >90 runs). All PBD compounds were dissolved in HPLC-grade MeOH to give working solutions containing ≦0.6% v/v MeOH; Tm results were corrected for the effects of MeOH co-solvent by using a linear correction term.
The above method was also carried out on the compounds of example 2, with all compounds being incubated for up to 72 hours.

[1] = test system: 170 bp sequence of the human Topo-IIa promoter; assay: DNase I footprinting on Topo-IIa promoter (ICB1, ICB2 sites); assay type: binding; conditions: for Concentration at which DNA binding is observed, ICB1: ICB1 site; for Concentration at which DNA binding is observed, ICB2: ICB2 site
Description: In a similar manner to Example 4, the affinity and sequence selectivity of certain compounds of examples 1 and 2 was evaluated by standard DNA footprinting on a 170 bp sequence of the human Topo-IIa promoter, in accordance with the technique described in Martin, C., et al.
Selected results are shown in FIG. 9, wherein the concentrations of the lanes were 0, 1.6, 8, 40, 200, 1000, 5000 and 25000 nM in each case.
The footprinting results allowed the identification of compounds that could potentially disrupt transcription factor binding at the ICB1 and ICB2 sites. […] These compounds are detailed below in table 3, showing the concentrations (μM) at which the PBD-heterocycle conjugates bind at ICB1 and ICB2.

[2] = test system: NF-Y binding at ICB1 of Topoisomerase IIα promoter; assay: NF-Y gel shift assay (EMSA) at ICB1
[3] = test system: NF-Y binding at ICB2 of Topoisomerase IIα promoter; assay: NF-Y gel shift assay (EMSA) at ICB2

Row | Compound | IC50 (human c-myc oncogene) | IC50 (HIV-1 LTR) | Induced ΔTm after incubation 0 hours (calf thymus DNA (CT-DNA)) | Induced ΔTm after incubation 4 hours (calf thymus DNA (CT-DNA)) | Induced ΔTm after incubation 18 hours (calf thymus DNA (CT-DNA)) | Induced ΔTm after incubation 72 hours (calf thymus DNA (CT-DNA)) | Concentration at which DNA binding is observed, ICB1 [1] | Concentration at which DNA binding is observed, ICB2 [1] | Lowest concentration at which NF-Y binding inhibition was observed [2] | Lowest concentration at which NF-Y binding inhibition was observed [3]
1 | Cn1cc(NC(=O)c2cc(NC(=O)c3cc(NC=O)cn3C)cn2C)cc1C(=O)NCCC(=N)N [distamycin A] | 25 µM | 50 µM | – | – | – | – | – | – | – | –
2 | CCOC(=O)c1nc(NC(=O)c2nc(NC(=O)c3cc(NC(=O)CCCOc4cc5c(cc4OC)C(=O)N4CCC[C@H]4C=N5)cn3C)cn2C)cn1C [Compound 91] | – | – | 16.8 °C | 17.6 °C | 18.7 °C | 18.8 °C | 5 µM | 5 µM | did not inhibit NF-Y binding | 50 µM
3 | COC(=O)c1cc(NC(=O)c2cc(NC(=O)c3nc(NC(=O)CCCOc4cc5c(cc4OC)C(=O)N4CCC[C@H]4C=N5)cn3C)cn2C)cn1C [Compound 67] | – | – | 19.1 °C | 19.8 °C | 21.1 °C | 21.6 °C | 5 µM | 1 µM | 50 µM | 5 µM

Source: patent publication US8637664B2, “Alkyl 4- [4- (5-oxo-2,3,5, 11a-tetrahydo-5H-pyrrolo [2, 1-c] [1,4] benzodiazepine-8-yloxy)-butyrylamino]-1H-pyrrole-2-carboxylate derivatives and related compounds for the treatment of a proliferative disease” (Spirogen SARL, priority 2005, dated 2014)
